According to patent US20220267864A1, “THERAPEUTIC, DIAGNOSTIC, AND PROGNOSTIC METHODS FOR CANCER” (Genentech, Inc., priority 2014, published 2022):

Test system: UMUC-10 cell line
Test: Cell viability (CELLTITER-GLO) of bladder cancer cell line treated with erlotinib
Format: cell-based
Details: UMUC-10 bladder cancer cell line; 72 hours; 3-fold dilution series starting with a 5 uM dose; FIG. 11G
From the text: Bladder cancer cell lines were obtained from the American Type Culture Collection (ATCC, Manassas, Va.) or from the Deutsche Sammlung von Mikroorganismen and Zellkulturen GmbH (DSMZ, Braunschweig, Germany). Cell lines were archived at an early passage in the Genentech cell bank and authenticated either by a multiplex short tandem repeat assay or as previously described (O'Brien et al. Clin. Cancer Res. 16(14): 3670-3683, 2010). All cell lines were maintained in RPMI 1640 or DMEM supplemented with 10% fetal bovine serum (Sigma, St. Louis, Mo.), nonessential amino acids, and 2 mmol/L L-glutamine.
Details of its structure, selectivity, and biological properties have been previously described (Stamos et al. J. Biol. Chem. 277(48): 46265-46272, 2002). Cell viability studies were carried out as previously described (O'Brien et al. Clin. Cancer Res. 16(14): 3670-3683, 2010). Cells were plated in quadruplicate at a density of 2,500 cells per well in 384-well plates in normal growth medium and allowed to adhere overnight. […] Cell viability was measured 72 hours later using the […]-GLO® Luminescent Cell Viability Assay (Promega, Madison, Wis.). The percent viability at each concentration was calculated compared to the control treated only with DMSO.

## C#Cc1cccc(Nc2ncnc3cc(OCCOC)c(OCCOC)cc23)c1 [erlotinib, [6,7-bis(2-methoxyethoxy)-4-quinazolin-4-yl]-(3-ethynylphenyl) amine]
  growth inhibition (GI): > 25%
